According to patent publication US11919886B2, “4,9-dioxo-4,9-dihydronaphtho[2,3-B]furan-3-carboxamide derivatives and uses thereof for treating proliferative diseases and infectious diseases” (Academia Sinica, priority 2016, dated 2024):
Converted amounts (≈) assume the structure as drawn. Read-outs that look alike come from different tables or passages of the source.

Experiments:
Enterococcus faecium = test: MIC, broth micro dilution method; assay type: cell-based
[1] = test system: Staphylococcus epidermidis; test: MIC, broth micro dilution method; assay type: cell-based
[2] = test system: CL1-0 (human lung adenocarcinoma cells, EGFR wild type and resistant to gefitinib); test: SRB cytotoxicity assay, CL1-0; conditions: CL1-0, 72 h
[3] = test system: Streptococcus infantarius subsp. infantarius; test: MIC, broth micro dilution method; assay type: cell-based; conditions: strain ATCC BAA-102, S. bovis
MCM2 = target: T1, MCM2 (Homo sapiens, UniProt P49736); test: Chromatin-bound MCM2 after double thymidine block (immunoblotting); assay type: cell-based; conditions: H1975, 4.5 hour, 6 hour and 9 hour treatment
T1 construct: The MCM2 proteins were pulled down by incubating the H1975 lysate with compound 1-conjugated magnetic beads; endogenous in cells; host or cells: H1975
T1 sequence (P49736 whole entry): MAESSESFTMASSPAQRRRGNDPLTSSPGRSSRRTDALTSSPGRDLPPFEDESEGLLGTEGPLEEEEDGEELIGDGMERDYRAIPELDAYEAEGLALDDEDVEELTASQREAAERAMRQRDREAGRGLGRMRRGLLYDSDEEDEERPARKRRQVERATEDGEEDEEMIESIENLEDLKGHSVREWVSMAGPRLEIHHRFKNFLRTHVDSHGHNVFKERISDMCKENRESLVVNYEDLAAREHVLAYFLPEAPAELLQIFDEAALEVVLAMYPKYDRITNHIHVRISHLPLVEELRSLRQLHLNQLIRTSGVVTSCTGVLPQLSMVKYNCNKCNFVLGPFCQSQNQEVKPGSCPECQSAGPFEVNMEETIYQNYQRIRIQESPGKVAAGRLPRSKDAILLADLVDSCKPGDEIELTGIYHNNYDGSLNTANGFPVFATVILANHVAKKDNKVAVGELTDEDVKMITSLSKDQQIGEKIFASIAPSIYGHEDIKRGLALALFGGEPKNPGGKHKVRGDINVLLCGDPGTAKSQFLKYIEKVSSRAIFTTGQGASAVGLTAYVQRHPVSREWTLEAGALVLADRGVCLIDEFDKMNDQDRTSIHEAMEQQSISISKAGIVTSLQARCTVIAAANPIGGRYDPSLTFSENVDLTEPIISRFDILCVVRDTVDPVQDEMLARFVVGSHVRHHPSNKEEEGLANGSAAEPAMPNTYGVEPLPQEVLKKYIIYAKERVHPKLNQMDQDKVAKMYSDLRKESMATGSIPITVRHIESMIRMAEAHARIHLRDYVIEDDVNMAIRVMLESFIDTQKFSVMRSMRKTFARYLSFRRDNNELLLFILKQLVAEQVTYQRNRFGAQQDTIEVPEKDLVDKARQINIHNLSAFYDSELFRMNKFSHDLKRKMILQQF
Description: To explore whether Compound 1-induced protein degradation also interfered with the DNA binding ability of MCM2, HI 975 cells were synchronized using a double thymidine block followed by release with DMSO or compound 1 treatment for 3 to 9 hours. Exemplary results are shown in Panel (D) of FIG. 3. Then, the cells were harvested to obtain the chromatin-bound fraction, and MCM2 was detected by immunoblotting.

[4] = test system: Staphylococcus lugdunensis; test: MIC, broth micro dilution method; assay type: cell-based; conditions: clinical isolate; for MIC: Staphylococcus lugdunensis, strain NTUH-4179, methicillin-resistant
[5] = test system: PC9 (human lung adenocarcinoma cells, EGFR del 19 mutation and sensitive to gefitinib); test: SRB cytotoxicity assay, PC9; conditions: 72 h
[6] = test system: PC9/IR (human lung adenocarcinoma cells, EGFR del 19 mutation but resistant to gefitinib); test: SRB cytotoxicity assay, PC9/IR; conditions: 72 h
Klebsiella pneumoniae = test: MIC, broth micro dilution method; assay type: cell-based
MCM complex (MCM2-MCM7) = test: Immunoblotting of MCM complex protein expression in H1975 cell lysates; assay type: cell-based, human
Description: To evaluate the effects of Compound 1 on modulating the expression of different MCM protein components, immunoblotting of DMSO or compound 1-treated (at 140 nM) H1975 cell lysates was performed. Exemplary results are shown in Panels (A)-(C) of FIG. 3. H1975 cell were treated with DMSO and compound 1 (140 nM). Compound 1-treated H1975 cells were harvested at 24 hours, 48 hours, and 72 hours, and the protein expression levels of MCM complex were analyzed by immunoblotting. […] (Panel (A) of FIG. 3.).
To evaluate the effects of Compound 1 on triggering MCM2, MCM6, and MCM7 degradation through transcriptional or post-translational regulation, compound 1-treated H1975 cells were harvested at 48 hours with or without 10 μM MG132 treatment for 12 hours; and the protein expression levels of MCM2/6/7 were examined by immunoblotting. […] It was observed that MG132 proteasome inhibitor may reverse the compound 1 effects on MCM2/6/7 protein expression levels.

[7] = test system: subcutaneous H1975 tumors; test: H1975 xenograft tumor growth in athymic nude mice (compound 1); assay type: in vivo; conditions: for average tumor size: day 27
Description: Panel (A): The structure of compound 1. Panel(B): A chart showing exemplary results for the cytotoxicity assay of Compound 1-treated cancer cells for 72 hours. […] Panel (C): Photos showing the different tumor sizes and TUNEL assay results between DMSO control and Compound 1-treated mice. H1975 (3×10^6) cells were subcutaneously injected into male nu/nu mice, and daily treated intraperitoneally with Compound I at indicated dose or DMSO for 4 weeks. During the treatment, tumor size and body weights were measured every 3 to 4 days; and the histology was confirmed by H&E staining (left lower panel of panel (C).
Exemplary results are shown in Panel (C) of FIG. 1. […] (Panel (C) of FIG. 1). In addition, the body weight of the mice was calculated when the tumor size was measured. Serum was also collected, and biological analysis in vitro was performed. […] Inhibition of tumor growth of Compound 1 with low cytotoxicity in vivo was observed.

[8] = test system: CL1-5 (human lung adenocarcinoma cells, EGFR wild type and resistant to gefitinib); test: SRB cytotoxicity assay, CL1-5; conditions: CL1-5, 72 h
H1975 cells = test: Double thymidine block, S phase progression by flow cytometry; assay type: cell-based, human; conditions: H1975, release from double thymidine block
Description: To evaluate the effects of compound Ion a single round of DNA replication in a cell cycle, H1975 cells were synchronized using a double thymidine block followed by release with DMSO or compound 1-containing medium for 2 to 14 hours. Exemplary results are shown in Panel (C) of FIG. 2. H1975 cells were grown to 60-70% confluence. Then, 2 mM thymidine (Sigma) was added to the cells and incubated for 17 hours. The cells were then washed, and fresh serum-containing medium was added. After 10 hours, thymidine was added again, and the cells were incubated for 17 hours; the cells were then washed with PBS, replaced with fresh serum-containing medium, and the data were collected at the indicated time points. Through flow cytometry analysis, the control cells were observed as synchronized in the G0-G1 phase from 0 hours, increased in the S phase from 4 to 6 hours, and finally progressed to the G2 phase after 8 hours. However, many of the compound 1-treated cells remained in the S phase at all time points. (Panel (C) of FIG. 2). A double thymidine block was performed and the data were collected at the indicated time points. Compared to DMSO, compound 1-treated H1975 cells required more time for the S phase (approximately 4 hours).

[9] = test system: Staphylococcus aureus (MSSA, MRSA); test: Disc diffusion method, inhibition zones; assay type: cell-based; conditions: for zone of inhibition at 5 µg/disc: Staphylococcus aureus, 5 μg
[10] = strain NTUH-6767, methicillin-resistant

Cc1oc2c(c1C(=O)NCCCn1ccnc1)C(=O)c1ccccc1C2=O [Compound 1, N-(3-(1H-Imidazol-1-yl)propyl)-2-methyl-4,9-dioxo-4,9-dihydronaphtho [2,3-b]furan-3-carboxamide]
MIC (Enterococcus faecium; read-out: MIC (μg/ml) 100%, strain ATCC19434): 16 µg/mL (≈ 44 µM)
MIC (Enterococcus faecium; strain ATCC19434, read-out: MIC (μg/ml) 50%): 2 µg/mL (≈ 5.5 µM)
MIC ([1]; read-out: MIC (μg/ml) 100%, strain ATCC12228, methicillin-susceptible): 2 µg/mL (≈ 5.5 µM)
MIC ([1]; read-out: MIC (μg/ml) 100%, strain ATCC35984, methicillin-resistant): 1 µg/mL (≈ 2.75 µM)
MIC ([1]; strain ATCC12228, methicillin-susceptible, read-out: MIC (μg/ml) 50%): 0.5 µg/mL (≈ 1.38 µM)
MIC ([1]; strain ATCC35984, methicillin-resistant, read-out: MIC (μg/ml) 50%): 0.25 µg/mL (≈ 0.688 µM)
IC50 [2]: 123 nM
MIC ([3]; read-out: MIC (μg/ml) 100%): 8 µg/mL (≈ 22 µM)
MIC ([3]; read-out: MIC (μg/ml) 50%): 4 µg/mL (≈ 11 µM)
chromatin-bound form of MCM2 vs DMSO control (MCM2): significantly reduced
MIC ([4]; read-out: MIC (μg/ml) 100%): 4 µg/mL (≈ 11 µM)
MIC ([4]; read-out: MIC (μg/ml) 50%): 0.5 µg/mL (≈ 1.38 µM)
MIC (μg/ml) 50% [4, 10]: 0.5 µg/mL (≈ 1.38 µM)
MIC (μg/ml) 100% [4, 10]: 4 µg/mL (≈ 11 µM)
IC50 [5]: 37 nM
IC50 [6]: 48 nM
MIC (Klebsiella pneumoniae; read-out: MIC (μg/ml) 100%, strain ATCC700603, gram negative): > 32 µg/mL
MIC (Klebsiella pneumoniae; strain ATCC700603, gram negative, read-out: MIC (μg/ml) 50%): > 32 µg/mL
expression of MCM3, MCM4, or MCM5 (MCM complex (MCM2-MCM7); H1975, 140 nM, 24, 48, 72 hours): lower only at 72 hours
expression levels of MCM2, MCM6, and MCM7 (MCM complex (MCM2-MCM7); H1975, 140 nM, 24 hour and 72 hour): significantly decreased
MCM protein levels and messenger RNA levels (MCM complex (MCM2-MCM7); H1975, 24 hours): substantial decrease in MCM protein levels without a change in their messenger RNA levels
average tumor size ([7]; 1 mg/kg daily intraperitoneal): 701.2±196.5 mm^3
body weight and serum biological analysis, control group vs compound treatment group ([7]; 1 mg/kg or 4 mg/kg daily intraperitoneal, 4 weeks): Few differences
average tumor size ([7]; 4 mg/kg daily intraperitoneal): 518.0±93.0 mm^3
IC50 [8]: 280 nM
more time required for the S phase compared to DMSO (H1975 cells): approximately 4 hours
antimicrobial activity against all the MRSA strains ([9]; 5 μg concentration, disc diffusion): showed antimicrobial activity
antibacterial activity against MRSA as compared to ciprofloxacin ([9]; MRSA): stronger antibacterial activity
zone of inhibition at 5 µg/disc ([9]; disc diffusion, read-out: average diameter of the inhibition zone): 25.5 mm
zone of inhibition at 5 µg/disc ([9]; strain MRSA14979, read-out: Inhibition zone (mm)): 25 mm
zone of inhibition at 5 µg/disc ([9]; strain MRSA15211, read-out: Inhibition zone (mm)): 26 mm
zone of inhibition at 5 µg/disc ([9]; strain NTUH-104-2, MRSA (SCCmec VT, ST45), read-out: Inhibition zone (mm)): 24 mm
zone of inhibition at 5 µg/disc ([9]; strain NTUH-2102, MRSA (SCCmec II, ST5, FA-S), read-out: Inhibition zone (mm)): 26 mm
zone of inhibition at 5 µg/disc ([9]; strain NTUH-4578, MRSA (SCCmec IV, ST59), read-out: Inhibition zone (mm)): 27 mm
zone of inhibition at 5 µg/disc ([9]; strain NTUH-9383, MRSA (SCCmec III, ST239, FA-R), read-out: Inhibition zone (mm)): 29 mm
zone of inhibition at 5 µg/disc ([9]; strain PM1, MRSA (SCCmec VT, ST59), read-out: Inhibition zone (mm)): 25 mm
zone of inhibition at 5 µg/disc ([9]; strain SA10451, read-out: Inhibition zone (mm)): 24 mm
zone of inhibition at 5 µg/disc ([9]; strain SA10780, read-out: Inhibition zone (mm)): 25 mm
zone of inhibition at 5 µg/disc ([9]; strain SAI 1863, read-out: Inhibition zone (mm)): 25 mm
zone of inhibition at 5 µg/disc ([9]; ATCC 25923 / MRSA / MSSA, strain ATCC25923, MSSA, read-out: Inhibition zone (mm)): 26 mm
